Target: Human serum albumin (HSA) (Homo sapiens, UniProt P02768)
Test: UV-Vis absorption titration at […] nm
Assay type: binding

Human serum albumin (HSA), sequence (P02768 25-609): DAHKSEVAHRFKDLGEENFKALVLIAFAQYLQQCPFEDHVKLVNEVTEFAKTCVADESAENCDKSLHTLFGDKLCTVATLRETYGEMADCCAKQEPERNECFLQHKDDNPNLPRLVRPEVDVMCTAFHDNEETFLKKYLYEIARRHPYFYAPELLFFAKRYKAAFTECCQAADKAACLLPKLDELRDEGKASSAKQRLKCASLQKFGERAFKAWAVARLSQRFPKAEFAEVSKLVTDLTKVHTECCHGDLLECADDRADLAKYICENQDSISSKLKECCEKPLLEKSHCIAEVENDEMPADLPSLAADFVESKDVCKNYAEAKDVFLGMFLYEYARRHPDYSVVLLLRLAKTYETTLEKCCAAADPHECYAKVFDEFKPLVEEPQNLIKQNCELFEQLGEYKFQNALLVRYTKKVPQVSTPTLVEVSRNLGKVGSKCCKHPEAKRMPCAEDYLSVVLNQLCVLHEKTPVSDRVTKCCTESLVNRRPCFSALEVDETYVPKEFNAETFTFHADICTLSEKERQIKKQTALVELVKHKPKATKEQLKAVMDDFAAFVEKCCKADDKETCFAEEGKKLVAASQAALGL

Kd: 990 µM
SMILES: CCCc1nc2c(C)cc(-c3nc4ccccc4n3C)cc2n1Cc1ccc(-c2ccccc2C(=O)O)cc1 [TLM]

From PMC7292872 (Saudi Pharmaceutical Journal : SPJ, 2020)
